Values joined by “and” are separate entries in the source; they are usually repeats but may differ in a detail not shown here. Equal values may be shown once. Residues, ends and D or L forms follow the SMILES beside them.
Tests used:
[1] = tested on: EL-4 lymphoma cells; assay: Tumor growth of EL-4 lymphoma in C57Bl/6 mice, compound with gamma-irradiation; type: in vivo, mouse; settings: for tumor volume: single mouse; for tumor volume, mean: group mean
Description: (§1) Tumor Growth Experiments. Tumor cells were washed in PBS and resuspended in a volume of 200 micro-l per inoculate. The cells were then inoculated into the right flank at 10^6 per mouse and growth of the tumor was monitored by measurement two times per week. The initiation of anti-tumor treatment of the mice was to some extent individualized according to when tumor growth started in each mouse. The mice were irradiated with 4 Gy prior to tumor inoculation in order to inhibit anti-tumor immune responses. The tumor volume was calculated as the mean volume in mice with tumors growth, according to (a1×a2×a3)/2 (the numbers ai denote tumor diameter, width and depth). The time of first palpation varied between different mice, although the general pattern of growth was similar in virtually all of the mice. In most diagrams a log-scale is used to better visualize the therapeutic effects against small tumors, i.e. the presence of complete rejections. For inhibition of TPPII in vivo we made intraperitoneal injections with 13.8 mg per kg of body weight (14 micro-l of a 50 mM solution/mouse) of the Subtilisin inhibitor Z-Gly-Leu-Ala-OH (Z-GLA-OH, Bachem, Weil am Rhein, Germany) twice per week, diluted into 200 micro-l PBS. All gamma-irradiations were full body exposures.
Table 3 contains further in vivo data, showing tumor volume in mm^3, in groups of 7-8 mice, according to the EL-4 tumor model described above. 1.000.000 EL-4 lymphoma cells were inoculated subcutaneously at day 0. No palpable tumors were observed until day 22. At each treatment (twice weekly) mice with palpable tumors were given 400 Rads irradiation alone, or in combination with 14 micro-l 50 mM solution of Z-GLA-OH. Mice with no palpable tumors were not treated, i.e. in mice with rejected tumors, treatment was terminated and the mice were kept under observation.
All mice were 400 Rad (1 Gy=100 Rad) gamma-irradiated at day 0, a standard procedure to improve tumor acceptance. The compound was inoculated intraperitoneally, whereas tumors were always inoculated subcutaneously.

[2] = tested on: DBA/2-c-Myc/Bcl-xL cells; assay: Tumor growth of DBA/2-c-Myc/Bcl-xL cells in DBA/2 mice; type: in vivo, mouse
Description: as §1
Retroviral transduction and transplantation. […]
Detection of GFP and YFP expression was performed using a Cyan™ ADP cytometer (Dako, Glostrup, Denmark) where after excitation at 488 nm, a 525-nm long-pass dichroic mirror was used to initially separate the signals followed by a 510/21-nm bandpass filter for detection of EGFP and a 550/30-nm band pass filter for EYFP. Data were analyzed using FlowJo software (Tree Star, Inc., San Carlos, Calif.). […]

[3] = EL-4, irradiation + Z-GLA-OH, day 26
[4] = EL-4, irradiation + Z-GLA-OH, day 30
[5] = EL-4, irradiation + Z-GLA-OH, day 34
[6] = EL-4, irradiation + Z-GLA-OH, day 37
[7] = EL-4, irradiation + Z-GLA-OH, day 41
[8] = EL-4, irradiation + Z-GLA-OH, day 44
[9] = EL-4, irradiation + Z-GLA-OH, day 48
[10] = EL-4, irradiation + Z-GLA-OH, day 55
[11] = EL-4, irradiation + Z-GLA-OH, day 62
[12] = EL-4, irradiation + Z-GLA-OH, day 65
[13] = EL-4, irradiation + Z-GLA-OH, day 72
[14] = EL-4, irradiation + Z-GLA-OH, day 78

Compound: CC(C)C[C@H](NC(=O)CNC(=O)OCc1ccccc1)C(=O)N[C@@H](C)C(=O)O [Z-GLA-OH, Z-Gly-Leu-Ala-OH] (HELM PEPTIDE1{[O=C(OCc1ccccc1)[*:2]].G.L.A}$$$$V2.0)
- period of observation without re-growth of tumors after treatment was cancelled ([1]; EL-4, after 4 Gy + Z-GLA-OH 13.8 mg/kg): over 3 months
- tumor volume ([1]; EL-4, irradiation 400 Rads + Z-GLA-OH 14 micro-l 50 mM i.p., day 22): 6.00 mm^3 and 0.50 mm^3 (5×) and 4.00 mm^3
- tumor volume, mean ([1]; EL-4, irradiation + Z-GLA-OH, day 22): 2.06 mm^3
- tumor volume, mean [1, 3]: 84.69 mm^3
- tumor volume [1, 3]: 108.00 mm^3 (3×) and 126.00 mm^3 and 75.00 mm^3 and 50.00 mm^3 and 40.00 mm^3 and 62.50 mm^3
- tumor volume, mean [1, 4]: 49.94 mm^3
- tumor volume [1, 4]: 108.00 mm^3 (2×) and 13.50 mm^3 and 18.00 mm^3 and 24.00 mm^3 and 32.00 mm^3 and 48.00 mm^3 (2×)
- tumor volume, mean [1, 5]: 20.75 mm^3
- tumor volume [1, 5]: 10.00 mm^3 and 0.50 mm^3 and 62.50 mm^3 and 24.00 mm^3 (2×) and 13.50 mm^3 (2×) and 18.00 mm^3
- tumor volume, mean [1, 6]: 12.69 mm^3
- tumor volume [1, 6]: 8.00 mm^3 and 18.00 mm^3 and 12.00 mm^3 and 6.00 mm^3 (2×) and 27.00 mm^3 and 24.00 mm^3 and 0.50 mm^3
- tumor volume, mean [1, 7]: 3.88 mm^3
- tumor volume [1, 7]: 0.50 mm^3 (3×) and 4.00 mm^3 (4×) and 13.50 mm^3
- tumor volume, mean [1, 8]: 1.14 mm^3
- tumor volume [1, 8]: 0.50 mm^3 (4×) and 0.10 mm^3 and 2.00 mm^3 and 1.00 mm^3 and 4.00 mm^3
- tumor volume, mean [1, 9]: 0.18 mm^3
- tumor volume [1, 9]: 0.10 mm^3 (4×) and 0.50 mm^3 (2×) and 0.00 mm^3 (2×)
- tumor volume, mean [1, 10]: 0.07 mm^3
- tumor volume [1, 10]: 0.00 mm^3 (6×) and 0.10 mm^3 and 0.50 mm^3
- tumor volume, mean [1, 11]: 0.01 mm^3
- tumor volume [1, 11]: 0.10 mm^3 and 0.00 mm^3 (7×)
- tumor volume, mean [1, 12]: 0.01 mm^3
- tumor volume [1, 12]: 0.00 mm^3
- tumor volume, mean [1, 13]: 0.01 mm^3
- tumor volume [1, 13]: 0.10 mm^3 and 0.00 mm^3 (7×)
- tumor volume, mean [1, 14]: 0.00 mm^3
- tumor volume [1, 14]: 0.00 mm^3
- tumor response, summary of Table 3 ([1]; EL-4, 400 Rads irradiation + 14 micro-l 50 mM Z-GLA-OH at each treatment (twice weekly)): complete rejection of established tumors
- mice with tumor regression (partial effects) ([1]; EL-4, Z-GLA-OH 3.5 mg/kg and lower doses + 3 Gy gamma-irradiation doses): 2 out of 4
- mice with complete tumor rejection ([1]; EL-4, Z-GLA-OH 6.9 mg/kg + 3 Gy gamma-irradiation doses): 3 out of 4
- mice with complete rejection ([1]; EL-4, gamma-irradiation doses of 1 Gy + Z-GLA-OH injection): 1 out of 4
- mice with complete rejection ([1]; EL-4, gamma-irradiation doses of 2 Gy + Z-GLA-OH injection): 2 out of 5
- tumor response ([1]; EL-4, gamma-irradiation doses of 3 Gy + Z-GLA-OH injection): complete regression
- tumor response ([1]; established EL-4 tumors, C57Bl/6 mice, 3-4 doses of 400 Rad (one dose/week) + Z-GLA-OH 13.8 mg/kg twice weekly, all mice tested): complete tumor regression
- tumor cells in lung, spleen or liver ([2]; Z-GLA-OH 13.8 mg/kg + gamma-irradiation, flow cytometry, histology): failed to find tumor cells
- tumor response ([2]; Z-GLA-OH only, no gamma-irradiation): no reduction of tumor size
- tumor response ([2]; established DBA/2-c-Myc/Bcl-xL tumors, Z-GLA-OH 13.8 mg/kg + 4 Gy doses of gamma-irradiation): complete tumor regression

From patent US20100168038A1, “USE OF COMPOUNDS IN COMBINATION WITH GAMMA-IRRADIATION FOR THE TREATMENT OF CANCER” (priority 2006, published 2010)
